From patent US12486259B2, “FXR agonist having pyrazine structure, and preparation method and use” (JIANGSU TASLY DIYI PHARMACEUTICAL CO., LTD., priority 2020, dated 2025)

Columns and labels:
[1] = tested on: C57/BL6 mice fed MCD diet; experiment: Pharmacodynamic test in methionine-choline deficient diet (MCD) model of non-alcoholic fatty liver disease; type: in vivo
Method: Animal strain: C57/BL6, Animal Grade: SPF Grade, Gender: male, Animal Age: 8 weeks old, Animals Received Date: 2018 Sep. 28, Animal Source: Shanghai Lingchang Biotechnology Co. Ltd., Animal Certificate No: SCXK (Shanghai)2013-0018 2013001836799, Mouse feeding Environment: temperature 20-26° C., humidity 40-70%, 12 hour day and night cycle.
5% Solutol HS15/Normal saline: after Solutol HS15 (polyethylene glycol 15 hydroxystearate solubilizer) is dissolved in a water bath at 37° C., 5 ml of it is dissolved in 100 ml of normal saline, thoroughly stirred for later use.
Obeticholic acid/5% Solutol HS15/Normal saline: 0.15 ml Solutol HS15 is added to accurately weighed 12 mg obeticholic acid to fully dissolve it, and 2.85 ml normal saline is added, vigorously mixed and dissolved by the ultrasound. • TM-01 Group/5% Solutol HS15/Normal saline: 2.5 ml of 6 mg/ml TM-01 suspension is taken, 2.5 ml of 5% Solutol HS15/normal saline is added, and the mixture is mixed well. • TM-02 Group/5% Solutol HS15/Normal saline: 2.5 ml of 6 mg/ml TM-02 suspension is taken, 2.5 ml of 5% Solutol HS15/normal saline is added, and the mixture is mixed well. • TM-06 Group/5% Solutol HS15/Normal saline: 2.5 ml of 6 mg/ml TM-06 suspension is taken, 2.5 ml of 5% Solutol HS15/Normal saline is added, and the mixture is mixed well. • TM-09 Group/5% Solutol HS15/Normal saline: 2.5 ml of 6 mg/ml TM-09 suspension is taken, 2.5 ml of 5% Solutol HS15/Normal saline is added, and the mixture is mixed well.
Menstruum and test compounds are administered by gavage at a dose volume of 10 ml/kg;
After reaching the animal house, 70 8-week-old C57/BL6 mice are fed adaptively and randomly divided into 7 groups according to body weight after the average body weight reaches 23 g. They are given the model feed. The first group receives the control diet MCS and the remaining groups receive the MCD diet, while each group of mice receives compound treatment as follows: • Group 1. Control Group: MCS, menstruum, administered once daily by gavage; • Group 2. Model Group: MCD, menstruum, administered once daily by gavage; • Group 3. Obeticholic acid group: MCD, 40 mpk obeticholic acid, administered once daily by gavage; • Group 4. TM-01 Group: MCD, 30 mpk TM-01, administered once daily by gavage; • Group 5. TM-02 Group: MCD, 30 mpk TM-02, administered once daily by gavage; • Group 6. TM-06 Group: MCD, 30 mpk TM-06, administered once daily by gavage; • Group 7. TM-09 Group: MCD, 30 mpk TM-09, administered once daily by gavage; 2.4 Experimental Methods
Body weight and food intake are measured weekly during the experiment. Twenty-one days after administration, tail tips are bled with microcapillaries for AST, ALT measurements. Twenty-eight days after administration, mice are terminated, hearts are bled, and liver tissues are collected and weighed. One portion is snap frozen with liquid nitrogen for subsequent analysis and the other portion are fixed for pathological analysis.
Mouse blood is centrifuged at 5000 rpm for 10 minutes and supernatants are collected for determination of TG (triglycerides), TC (total cholesterol), HDL (high density lipoprotein), LDL (low density lipoprotein), AST (aspartate aminotransferase) and ALT (alanine aminotransferase).
AST and ALT after administration for three and four weeks are determined according to the instructions of kit. The blood lipid index 4 weeks after administration is sent to Adicon Medical Laboratory Co. Ltd. for detection.
The livers are removed from −80° C., homogenized in PBS (phosphate buffered saline), extracted with chloroform methanol organic phase, and subjected to TC and TG assays using the kit, normalized for protein content.
Four weeks after administration, the mice are anesthetized. The heart is bled, the liver is isolated and weighed. The right lobe is snapfrozen with liquid nitrogen and stored at −80° C. for liver lipid analysis. The left lobe is isolated and fixed in 10% formalin for subsequent HE and Sirius Red staining. […]

[2] = target: T1, GST-labeled recombinant human FXR protein (Homo sapiens, UniProt Q96RI1); experiment: Agonistic activity on FXR receptor (GST-FXR / SRC-1 bead assay, protein level); type: biochemical; conditions: 0.4 nM FXR, 30 nM SRC-1, protein level
T1 construct: purchased Invitroren (so in the source)
T1 sequence (Q96RI1 262-486 limits assumed): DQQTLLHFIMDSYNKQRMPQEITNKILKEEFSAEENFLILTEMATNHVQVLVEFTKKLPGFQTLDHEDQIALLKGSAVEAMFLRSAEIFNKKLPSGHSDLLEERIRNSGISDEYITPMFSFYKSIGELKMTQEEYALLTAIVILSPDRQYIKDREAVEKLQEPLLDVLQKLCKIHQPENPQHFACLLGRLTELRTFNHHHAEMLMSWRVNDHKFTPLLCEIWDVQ
T1 sequence (Q15788 676-700 partner limits assumed): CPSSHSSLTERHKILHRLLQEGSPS
Outline: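 Compound-driven recruitment of SRC-1 (30 nM) to recombinant GST-tagged human FXR (0.4 nM), incubated 1 h at room temperature before sequential 1 h additions of acceptor then donor beads (10 ug/ml each). EC50 derived by curve fitting of proximity signal.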

[3] = MCD mice, after 4 weeks, TM 30 mpk, obeticholic acid 40 mpk
[4] = MCD mice, blood, 3 weeks, TM 30 mpk, obeticholic acid 40 mpk, gavage
[5] = MCD mice, blood, 4 weeks, TM 30 mpk, obeticholic acid 40 mpk, gavage
[6] = MCD mice, blood, after 4 weeks, TM 30 mpk, obeticholic acid 40 mpk
[7] = MCD mice, liver, after 4 weeks, TM 30 mpk, obeticholic acid 40 mpk
[8] = after 4 weeks of MCD and compounds treatment

Cc1cc(C(=O)O)cc(C2CC(O)(c3cnc(OCc4c(-c5c(Cl)cccc5Cl)noc4C(C)C)cn3)C2)c1 (stereo not shown) [TM-09, 3-(3-(5-((3-(2,6-dichlorophenyl)-5-isopropylisoxazol-4-yl)methoxy)pyrazine-2-yl)-3-hydroxycyclobutyl)-5-methyl benzoic acid]
Weight, 0 week ([1]; MCD mice, 0 week, TM compounds 30 mpk, obeticholic acid 40 mpk, once daily by gavage): 23.60 ± 0.29 g | Food intake, 1 week ([1]; MCD mice, 1 week, TM 30 mpk, obeticholic acid 40 mpk, gavage): 2.364 ± 0.186 g | Weight, 1 week ([1]; MCD mice, 1 week, TM compounds 30 mpk, obeticholic acid 40 mpk, once daily by gavage): 21.26 ± 0.34 g | Food intake, 2 weeks ([1]; MCD mice, 2 weeks, TM 30 mpk, obeticholic acid 40 mpk, gavage): 2.707 ± 0.187 g | Weight, 2 weeks ([1]; MCD mice, 2 weeks, TM compounds 30 mpk, obeticholic acid 40 mpk, once daily by gavage): 19.29 ± 0.39 g | Food intake, 3 weeks ([1]; MCD mice, 3 weeks, TM 30 mpk, obeticholic acid 40 mpk, gavage): 2.284 ± 0.342 g | Weight, 3 weeks ([1]; MCD mice, 3 weeks, TM compounds 30 mpk, obeticholic acid 40 mpk, once daily by gavage): 17.18 ± 0.31 g | Food intake, 4 weeks ([1]; MCD mice, 4 weeks, TM 30 mpk, obeticholic acid 40 mpk, gavage): 2.109 ± 0.661 g | Weight, 4 week ([1]; MCD mice, 4 weeks, TM compounds 30 mpk, obeticholic acid 40 mpk, once daily by gavage): 15.90 ± 0.31 g | liver weight [1, 3]: 0.74 ± 0.04 g | liver/body weight [1, 3]: 4.98 ± 0.25 % | ALT, 3 weeks [1, 4]: 40.27 ± 21.48 U/L | AST, 3 weeks [1, 4]: 45.04 ± 12.08 U/L | ALT, 4 weeks [1, 5]: 14.30 ± 4.19 U/L | AST, 4 weeks [1, 5]: 38.40 ± 4.19 U/L | HDL (blood lipid) [1, 6]: 0.56 ± 0.02 mmol/L | LDL (blood lipid) [1, 6]: 2.52 ± 0.07 mmol/L | TC (blood lipid) [1, 6]: 0.86 ± 0.09 mmol/L | TG (blood lipid) [1, 6]: 0.54 ± 0.04 mmol/L | HE score ([1]; MCD mice, liver pathology score (Table 12 criteria), 4 weeks, TM 30 mpk, obeticholic acid 40 mpk): 1.1 | Sirius red staining area ([1]; MCD mice, liver, 4 weeks, TM 30 mpk, obeticholic acid 40 mpk): 0.392 ± 0.057 % | liver TC [1, 7]: 37.7 ± 3.65 µmol/g protein | liver TG [1, 7]: 232 ± 18.4 µmol/g protein | blood lipid levels (in words) [1, 8]: different reductions in blood lipids | liver triglyceride and cholesterol content (in words) [1, 8]: significant lowering effect on liver triglyceride and cholesterol levels | liver weight and liver/body weight (in words) [1, 8]: significantly increases mouse liver weight and liver/body weight | ALT and AST compared to the model group (in words) ([1]; three weeks after MCD and compounds treatment): significantly reduced | EC50 [2]: 480 nM
